# Reference: US20250326765A1, “PDE4B INHIBITOR AND USE THEREOF” (XIZANG HAISCO PHARMACEUTICAL CO., LTD., priority 2022, published 2025)
# Where two headings read alike, the source gives them in different places.
# Experiments:
# PDE4B2 = target: T1, PDE4B2 (Homo sapiens, UniProt Q07343); assay: Effect of compounds on PDE4B2 activity (fluorescence polarization kit); format: biochemical
# T1 construct: purchased BPS Bioscience 60343
# Method: The effect of compounds on PDE4B2 activity was detected by a fluorescence polarization kit (BPS Bioscience, Catalog #60343). According to the instructions of the kit, FAM-Cyclic-3′,5′-AMP at a final concentration of […], 1 ng/well of PDE4B2 (PDE buffer was added to the negative control well), and a compound diluted in a gradient manner (PDE buffer containing 10% DMSO was added to the positive control well) were added to each well, fully mixed, and then reacted at room temperature for 1 h. The Binding Agent was diluted with the Binding Agent Diluent (cAMP) at a ratio of 1:100 for later use, the Binding Agent dilution was taken and added to the test plate at 50 μl/well and incubated at room temperature with slow shaking for 20 minutes. After the incubation was complete, Envision was used for FP detection, with Excitation at 480 nm and Emission at 535 nm. FP was usually represented by mP value.
# [formula] • I∥ (S535): fluorescence intensity in parallel direction • I⊥ (P535): fluorescence intensity in perpendicular direction • G: G factor=1
# (§1) [formula] • mP(sample): mP of the test compound in a reaction well • mP(negative control): mP in the negative control well • mP(positive control): mP in the positive control well
# (§2) According to the calculated inhibition rate at each concentration, the IC50 value of each compound was calculated by GraphPad Prism 8 software.
# [1] = Pharmacokinetic test in beagle dogs; format: in vivo
# Method: 6.1 Experimental animals: male beagle dogs, about 8-11 kg, 6 beagle dogs/compound, purchased from Beijing Marshall Biotechnology Co., Ltd.
# 6.2 Experimental method: On the day of the experiment, 18 beagle dogs were randomly grouped according to their body weights. The animals were fasted with water available for 12-14 h one day before administration and fed 4 h after administration. Administration was carried out according to Table 8.
# Before and after administration, 1 ml of blood was taken from the jugular vein or limb vein and placed in an EDTAK2 centrifuge tube. Centrifugation was carried out at 5000 rpm at 4° C. for 10 min, and plasma was collected. The blood collection time points for the intravenous group and intragastric group were both 0 min, 5 min, 15 min, 30 min, 1 h, 2 h, 4 h, 6 h, 8 h, 10 h, 12 h, 24 h, 48 h, and 72 h. Before analysis and detection, all the samples were stored at −80° C., and the samples were subjected to quantitative analysis using LC-MS/MS.
# [2] = Pharmacokinetic test in mice; format: in vivo, ICR mice; settings: for AUC(0-t) / clearance / half-life / Vd: male, ICR, mouse, plasma; for Vd: read-out: Vdss
# Method: 5.1 Experimental animals: Male ICR mice, 20-25 g, 6 mice/compound. Purchased from Chengdu Ddossy Experimental Animals Co., Ltd.
# 5.2 Experimental design: On the day of the experiment, 42 ICR mice were randomly grouped according to their body weights. The animals were fasted with water available for 12-14 h one day before administration and fed 4 h after administration.
# Before and after administration, 0.06 mL of blood was taken from the orbit under isoflurane anesthesia and placed in an EDTAK2 centrifuge tube for centrifugation at 5000 rpm at 4-C for 10 min, followed by plasma collection. The blood collection time points for the intravenous group and intragastric group were both 0 m, 5 mi, 15 mi, 30 mi, 1 h, 2 h, 4 h, 6 h, 8 h, and 24 h. Before analysis and detection, all the samples were stored at −80° C., and the samples were subjected to quantitative analysis using LC-MS/MS.
# PDE4D2 = target: T2, PDE4D2 (Homo sapiens, UniProt Q08499); assay: Effect of compounds on PDE4D2 activity (fluorescence polarization kit); format: biochemical; settings: class symbols
# T2 construct: purchased BPS Bioscience 60345
# T2 sequence (Q08499 303-809): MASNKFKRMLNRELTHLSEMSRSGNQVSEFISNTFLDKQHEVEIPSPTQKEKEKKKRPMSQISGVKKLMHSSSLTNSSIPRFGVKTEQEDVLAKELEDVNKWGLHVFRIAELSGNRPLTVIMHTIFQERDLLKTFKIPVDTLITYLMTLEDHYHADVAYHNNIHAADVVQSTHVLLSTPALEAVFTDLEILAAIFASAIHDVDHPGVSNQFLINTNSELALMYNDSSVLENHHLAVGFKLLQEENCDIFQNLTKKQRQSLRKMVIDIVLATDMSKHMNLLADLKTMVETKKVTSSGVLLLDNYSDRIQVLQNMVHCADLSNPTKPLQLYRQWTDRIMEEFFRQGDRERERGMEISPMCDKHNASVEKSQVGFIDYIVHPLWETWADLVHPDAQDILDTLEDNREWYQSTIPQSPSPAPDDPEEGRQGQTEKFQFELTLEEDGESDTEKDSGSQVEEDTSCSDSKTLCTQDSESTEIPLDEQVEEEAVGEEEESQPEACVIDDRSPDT
# Method: The effect of compounds on PDE4D2 activity was detected by a fluorescence polarization kit (BPS Bioscience, Catalog #60345). During the reaction, 12.5 μL of 0.272 ng/well of an enzyme (final concentration: 0.068 ng/well) and 12.5 μL of the compound diluted in a gradient manner (DMSO concentration: 4%) were first pre-incubated at room temperature for 15 minutes, the same volume of the enzyme at the same concentration and 12.5 μL of PDE buffer containing 4% DMSO were added to the positive control well, and 25 μL of PDE buffer containing 2% DMSO was added to the negative control well. After completion, 25 μL of […] FAM-Cyclic-3′,5′-AMP (final concentration: […]) was added to each well, fully mixed, and then incubated at room temperature with slow shaking for 30 minutes. The Binding Agent was diluted with the Binding Agent Diluent (cAMP) at a ratio of 1:100 for later use, 100 μl/well of the Binding Agent dilution was taken and added to all wells of the test plate and incubated at room temperature with slow shaking for 1 hour.
# After the incubation was complete, BMG LRBTECH microplate reader was used for FP detection, with Excitation at 485 nm and Emission at 520 nm. FP was usually represented by mP value.
# [formula] • I∥ (S520): fluorescence intensity in parallel direction • I⊥ (P520): fluorescence intensity in perpendicular direction • G: G factor=1
# as §1, §2
# PDE4B1 = target: T3, PDE4B1 (Homo sapiens, UniProt Q07343); assay: Effect of compounds on PDE4B1 activity (IMAP fluorescence polarization kit); format: biochemical; settings: class symbols
# T3 construct: purchased BPS 60041
# T3 sequence (Q07343 whole entry): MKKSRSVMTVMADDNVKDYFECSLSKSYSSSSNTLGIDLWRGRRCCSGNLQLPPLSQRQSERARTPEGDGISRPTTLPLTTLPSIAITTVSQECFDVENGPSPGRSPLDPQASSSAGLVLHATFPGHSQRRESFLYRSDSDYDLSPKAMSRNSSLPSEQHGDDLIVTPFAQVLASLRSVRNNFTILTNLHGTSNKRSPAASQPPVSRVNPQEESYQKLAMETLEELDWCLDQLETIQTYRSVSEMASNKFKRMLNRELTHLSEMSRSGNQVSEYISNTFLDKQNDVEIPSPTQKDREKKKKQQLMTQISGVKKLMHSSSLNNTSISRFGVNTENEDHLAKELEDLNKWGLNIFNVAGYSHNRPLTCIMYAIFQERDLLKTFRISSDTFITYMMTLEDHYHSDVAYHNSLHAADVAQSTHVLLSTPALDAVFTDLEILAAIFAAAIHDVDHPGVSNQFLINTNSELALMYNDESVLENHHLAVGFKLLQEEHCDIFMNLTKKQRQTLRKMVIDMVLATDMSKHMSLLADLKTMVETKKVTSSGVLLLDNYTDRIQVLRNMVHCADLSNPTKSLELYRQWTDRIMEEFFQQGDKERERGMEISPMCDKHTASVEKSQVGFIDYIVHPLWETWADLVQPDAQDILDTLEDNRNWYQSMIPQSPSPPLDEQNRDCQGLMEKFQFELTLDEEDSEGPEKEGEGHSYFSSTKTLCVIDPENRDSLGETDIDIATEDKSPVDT
# Method: The IMAP Reaction Buffer containing 0.1% BSA (5×) in the kit was diluted into a 1-fold reaction buffer containing 1 mM DTT. 0.12 nM PDE4B1 (BPS, Cat #60041) was added to the 1-fold reaction buffer to form a 2-fold enzyme solution. 10 μL of the 2-fold enzyme solution was added to wells of a 384-well reaction plate. For the negative control well, 10 μL of the 1-fold reaction buffer was used instead of the enzyme solution. Centrifugation at 1000 rpm for 1 minute and incubation at room temperature for 15 minutes were carried out. 0.2 uM FAM-labeled cAMP (FAM-cAMP, Molecular Device, Cat #R7506) was added to the 1-fold reaction buffer to form a 2-fold substrate solution. 10 μL of the 2-fold substrate solution was added to each well of the 384-well reaction plate. Centrifugation at 1000 rpm for 1 minute was carried out. A reaction was carried out at room temperature for 20 minutes. IMAP Progressive Binding Buffer A (5×), IMAP Progressive Binding Buffer B (5×), and IMAP Progressive Binding Reagent (provided by IMAP FP IPP Explorer Kit) were prepared into a reaction stop solution according to the instructions for use. 60 μL of an […] reaction stop solution was added to each well of the 384-well reaction plate to stop the reaction, and the reaction product was centrifuged at 1000 rpm for 1 minute. Incubation at room temperature in the dark for 60 minutes was carried out. The mP values (Ex480/Em535 (s), Em535 (p)) were read by a microplate reader (Envision).
# FP was usually represented by mP value. mP value for FP measurement=1000*(S−G*P)/(S+G*P) • S: fluorescence intensity in parallel direction • P: fluorescence intensity in perpendicular direction • G: G factor=1
# as §1
# According to the calculated inhibition rate at each concentration, the IC50 value of each compound was calculated by XLFit excel add-in version 5.4.0.8 software.
# Y=Bottom+(Top−Bottom)/(1+(IC50/X)^HillSlope) Fitting formula: […]
# [3] = Inhibition of LPS-induced TNF-α release from human peripheral blood mononuclear cells in vitro; format: cell-based; settings: PBMC, hPBMC, 100 ng/mL LPS, 4 h
# Method: Normal human peripheral blood which was anticoagulated (citric acid anticoagulation) was collected, and hPBMCs were prepared by Ficoll-Paque PLUS (Cytiva, Cat #17144002, density 1.077 g/mL). The concentration of hPBMC cells was adjusted to 0.25×10^6 cells/mL with RPMI1640 medium and inoculated into a 96-well plate in an amount of 50000 cells per well. Subsequently, different concentrations of drugs were added for pre-incubation for 1 h (the DMSO final concentration was 0.1%, and the positive and negative control wells had the same volume of RPMI1640 containing 0.1% DMSO). After the pre-incubation was complete, 100 ng/mL LPS (SIGMA, L2630) was added to the compound and positive control wells, and the negative control well had the same volume of RPMI1640 containing 0.1% DMSO. Incubation was carried out for 4 h in an incubator at 37° C. and 5% CO2. The cell supernatant was collected, and the content of TNF-α in the supernatant sample was detected by human TNF-α Elisa quantitative test kit (Sino Biological, Cat #KIT10602). The IC50 value was calculated using GraphPad Prism software.
# [4] = class symbols, read-out: PDE4B2 IC50
# [5] = male, dog, iv, plasma, i.v. (1 mg/kg)
# [6] = male, dog, po, plasma, i.g. (5 mg/kg)
# T1 sequence (Q07343 1-564 isoform Q07343-2): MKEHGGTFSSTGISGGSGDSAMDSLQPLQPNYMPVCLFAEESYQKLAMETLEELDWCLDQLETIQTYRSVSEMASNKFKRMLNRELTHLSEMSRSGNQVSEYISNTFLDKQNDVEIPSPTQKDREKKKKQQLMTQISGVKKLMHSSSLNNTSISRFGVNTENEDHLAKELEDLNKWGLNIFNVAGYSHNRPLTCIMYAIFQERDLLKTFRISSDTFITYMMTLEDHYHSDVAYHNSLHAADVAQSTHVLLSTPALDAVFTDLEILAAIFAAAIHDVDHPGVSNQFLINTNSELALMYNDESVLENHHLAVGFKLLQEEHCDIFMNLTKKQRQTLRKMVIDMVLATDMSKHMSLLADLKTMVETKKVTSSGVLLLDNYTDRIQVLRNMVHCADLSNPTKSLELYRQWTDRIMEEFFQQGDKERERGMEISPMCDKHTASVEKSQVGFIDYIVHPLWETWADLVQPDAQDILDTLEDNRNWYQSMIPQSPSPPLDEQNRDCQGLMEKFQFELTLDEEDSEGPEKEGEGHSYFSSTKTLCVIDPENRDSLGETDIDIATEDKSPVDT
Compound,IC50 (PDE4B2; [4]),IC50 (PDE4D2),IC50 (PDE4B1),also measured
[O-][S@+]1CCc2nc(N3CC=C(c4ccc5c(c4)CC5)CC3)nc(NC3(CO)CCC3)c21 [Compound 26],–,< 10 nM,< 10 nM,–
[O-][S@+]1CCc2nc(N3CCC=C(c4ccc5c(c4)CC5)CC3)nc(NC3(CO)CCC3)c21 [Compound 27],–,< 10 nM,< 10 nM,–
[O-][S@+]1CCc2nc(N3CC=C(c4ncc(Cl)cn4)CC3)nc(NC3(CO)CCC3)c21 [Compound 28],–,< 10 nM,< 10 nM,"F ([2]; i.g. (10 mg/kg)): 71.4 ± 11%; AUC(0-t) ([2]; iv, i.v. (5 mg/kg)): 9210 ± 2070 ng·h/mL; clearance ([2]; iv, i.v. (5 mg/kg)): 4.67 ± 1.2 mL/min/kg; half-life ([2]; iv, i.v. (5 mg/kg)): 3.59 ± 0.19 h; Vd ([2]; iv, i.v. (5 mg/kg)): 1.31 ± 0.28 L/kg; AUC(0-t) ([2]; po, i.g. (10 mg/kg)): 26300 ± 4150 ng·h/mL; half-life ([2]; po, i.g. (10 mg/kg)): 7.04 ± 1.8 h"
[O-][S+]1CCc2nc(N3CCC4=C(COc5cc(Cl)ccc54)C3)nc(NC3(CO)CCC3)c21 (stereo not drawn) [Compound 29],–,< 10 nM,< 10 nM,–
[O-][S+]1CCc2nc(N3CC=C(c4c(F)cc(Cl)cc4F)CC3)nc(NC3(CO)CCC3)c21 (stereo not drawn) [Compound 35],–,< 10 nM,< 10 nM,–
[O-][S@+]1CCc2nc(N3CC=C(c4ccc(Cl)c5c4CC5)CC3)nc(NC3(CO)CCC3)c21 [Compound 83],< 10 nM,< 10 nM,–,"IC50 ([3]; class symbols, read-out: Re IC50 (nM) (relative IC50), TNF-α induced by LPS): < 10 nM; Emax ([3]; read-out: Max inhibition (%)): 77.7%"

# Continued, in another order:
IC50 (PDE4B2; [4]),IC50 (PDE4D2),IC50 (PDE4B1),Compound,also measured
< 10 nM,< 10 nM,–,[O-][S@+]1CCc2nc(N3CCC=C(c4ccc(Cl)cc4)CC3)nc(NC3(CO)CCC3)c21 [Compound 5],"IC50 (PDE4B2; values in text, read-out: IC50 against PDE4B2): 8.1 nM; F ([1]; i.g. (5 mg/kg)): ≥98%; AUC(0-t) [1, 5]: 1200 ± 210 ng·h/mL; clearance [1, 5]: 13.8 ± 2.3 mL/min/kg; half-life [1, 5]: 3.91 ± 0.037 h; Vd ([1]; male, dog, iv, plasma, i.v. (1 mg/kg), read-out: Vdss): 4.16 ± 0.76 L/kg; AUC(0-t) [1, 6]: 5020 ± 1700 ng·h/mL; half-life [1, 6]: 6.32 ± 2.1 h; F ([2]; i.g. (10 mg/kg)): 91.9 ± 7.5%; AUC(0-t) ([2]; iv, i.v. (5 mg/kg)): 7400 ± 1110 ng·h/mL; clearance ([2]; iv, i.v. (5 mg/kg)): 5.71 ± 0.86 mL/min/kg; half-life ([2]; iv, i.v. (5 mg/kg)): 2.72 ± 0.23 h; Vd ([2]; iv, i.v. (5 mg/kg)): 1.31 ± 0.12 L/kg; AUC(0-t) ([2]; po, i.g. (10 mg/kg)): 27200 ± 2230 ng·h/mL; half-life ([2]; po, i.g. (10 mg/kg)): 3.42 ± 0.16 h"
10 to 50 nM,< 10 nM,< 10 nM,[O-][S+]1CCc2nc(N3CC4C(C3)C4c3ccc(Cl)cc3)nc(NC3(CO)CCC3)c21 (stereo not drawn) [Compound 20],–
10 to 50 nM,10 to 50 nM,10 to 50 nM,[O-][S@+]1CCc2nc(N3C[C@H]4CC[C@@H](C3)[C@@H]4c3ccc(Cl)cc3)nc(NC3(CO)CCC3)c21 [Compound 22],–
10 to 50 nM,< 10 nM,< 10 nM,[O-][S@+]1CCc2nc(N3C[C@H]4CN(c5ncc(Cl)cn5)C[C@H]4C3)nc(NC3(CO)CCC3)c21 [Compound 25],–
–,–,< 10 nM,CC1=C(c2ccc(Cl)cc2)CCN(c2nc3c(c(NC4(CO)CCC4)n2)[S+]([O-])CC3)C1 (stereo not drawn) [Compound 36],–
